Reference: PubChem BioAssay (NCI)
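96-well plates; 48 h exposure; 5 concentrations. Endpoints by linear interpolation between flanking doses. Not reached: highest tested concentration assigned. GI50: concentration for 50% inhibition of growth. Definition used: TGI = concentration required for complete inhibition of growth.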 Peptide text beside a SMILES is read from it.

Legend:
Assay in all cases: DTP human tumour cell line panel, 48 h
K-562 leukemia = system: K-562 leukemia
OVCAR-3 ovarian = system: OVCAR-3 ovarian
SF-268 CNS = system: SF-268 CNS
PC-3 prostate = system: PC-3 prostate
SK-OV-3 ovarian = system: SK-OV-3 ovarian
SNB-19 CNS = system: SNB-19 CNS
NCI-H460 lung = system: NCI-H460 lung
SK-MEL-5 melanoma = system: SK-MEL-5 melanoma
LOX IMVI melanoma = system: LOX IMVI melanoma
TK-10 renal = system: TK-10 renal
IGROV1 ovarian = system: IGROV1 ovarian
NCI/ADR-RES ovarian = system: NCI/ADR-RES ovarian
HCC-2998 colon = system: HCC-2998 colon
HCT-15 colon = system: HCT-15 colon
OVCAR-5 ovarian = system: OVCAR-5 ovarian
KM12 colon = system: KM12 colon
CAKI-1 renal = system: CAKI-1 renal
T-47D breast = system: T-47D breast
SK-MEL-2 melanoma = system: SK-MEL-2 melanoma
HT29 colon = system: HT29 colon
MDA-MB-231 breast = system: MDA-MB-231 breast
NCI-H522 lung = system: NCI-H522 lung
NCI-H23 lung = system: NCI-H23 lung
SW-620 colon = system: SW-620 colon
SR leukemia = system: SR leukemia
U251 CNS = system: U251 CNS
NCI-H226 lung = system: NCI-H226 lung
UO-31 renal = system: UO-31 renal
EKVX NSCLC = system: EKVX NSCLC
HS 578T breast = system: HS 578T breast
ACHN renal = system: ACHN renal
UACC-257 melanoma = system: UACC-257 melanoma
UACC-62 melanoma = system: UACC-62 melanoma
RXF 393 renal = system: RXF 393 renal
CCRF-CEM leukemia = system: CCRF-CEM leukemia
MOLT-4 leukemia = system: MOLT-4 leukemia
HCT-116 colon = system: HCT-116 colon
M14 melanoma = system: M14 melanoma
MCF7 breast = system: MCF7 breast
OVCAR-8 ovarian = system: OVCAR-8 ovarian
HOP-92 NSCLC = system: HOP-92 NSCLC
A549 NSCLC = system: A549 NSCLC
SNB-75 CNS = system: SNB-75 CNS
786-0 renal = system: 786-0 renal
DU-145 prostate = system: DU-145 prostate
OVCAR-4 ovarian = system: OVCAR-4 ovarian
SN12C renal = system: SN12C renal
HL-60(TB) leukemia = system: HL-60(TB) leukemia
SK-MEL-28 melanoma = system: SK-MEL-28 melanoma
A498 renal = system: A498 renal
SF-539 CNS = system: SF-539 CNS
RPMI-8226 leukemia = system: RPMI-8226 leukemia
HOP-62 NSCLC = system: HOP-62 NSCLC
COLO 205 colon = system: COLO 205 colon
MDA-MB-435 = system: MDA-MB-435
SF-295 CNS = system: SF-295 CNS
MALME-3M melanoma = system: MALME-3M melanoma
BT-549 breast = system: BT-549 breast

Oc1c(N2CCOCC2)cc(-c2cc(N3CCOCC3)c(O)c3ccccc23)c2ccccc12
TGI (K-562 leukemia): 6.64 µM | TGI (OVCAR-3 ovarian): 15.6 µM | TGI (SF-268 CNS): 17.8 µM | TGI (PC-3 prostate): 14.6 µM | TGI (SK-OV-3 ovarian): 51.9 µM | TGI (SNB-19 CNS): 16.6 µM | TGI (NCI-H460 lung): 11.4 µM | TGI (SK-MEL-5 melanoma): 3.35 µM | TGI (LOX IMVI melanoma): 7.09 µM | TGI (TK-10 renal): 28.9 µM | TGI (IGROV1 ovarian): 7.16 µM | TGI (NCI/ADR-RES ovarian): 15.6 µM | TGI (HCC-2998 colon): 5.78 µM | TGI (HCT-15 colon): 6.38 µM | TGI (OVCAR-5 ovarian): 7.25 µM | TGI (KM12 colon): 25.4 µM | TGI (CAKI-1 renal): 13.8 µM | TGI (T-47D breast): 62.1 µM | TGI (SK-MEL-2 melanoma): 8.29 µM | TGI (HT29 colon): 5.26 µM | TGI (MDA-MB-231 breast): > 100 µM | TGI (NCI-H522 lung): 4.89 µM | TGI (NCI-H23 lung): 6.13 µM | TGI (SW-620 colon): 6.34 µM | TGI (SR leukemia): 2.29 µM | TGI (U251 CNS): 3.34 µM | TGI (NCI-H226 lung): 59.8 µM | TGI (UO-31 renal): 4.66 µM | TGI (EKVX NSCLC): 41.6 µM | TGI (HS 578T breast): > 100 µM | TGI (ACHN renal): 11 µM | TGI (UACC-257 melanoma): 5.11 µM | TGI (UACC-62 melanoma): 5.73 µM | TGI (RXF 393 renal): 6.03 µM

CCOC(=O)CNC(=O)C(Cc1ccccc1)NC(=O)C(N)CC(=O)O (stereo not drawn) (H-Asp-Phe-Gly-OEt; configuration not given here)
GI50 (KM12 colon): 0.194 µg/mL | GI50 (CCRF-CEM leukemia): 85.2 µg/mL | GI50 (MOLT-4 leukemia): 23.7 µg/mL | GI50 (HS 578T breast): 9.31 µg/mL | GI50 (UACC-62 melanoma): 30.3 µg/mL

O=C1/C(=C(/c2ccccc2)N2CCOCC2)Cc2ccccc21
GI50 (K-562 leukemia): 3.42 µM | GI50 (OVCAR-3 ovarian): 0.479 µM | TGI (OVCAR-3 ovarian): 1.5 µM | GI50 (SF-268 CNS): 2.29 µM | TGI (SF-268 CNS): 6.35 µM | GI50 (HCT-116 colon): 0.919 µM | TGI (HCT-116 colon): 2.44 µM | GI50 (PC-3 prostate): 1.64 µM | TGI (PC-3 prostate): 6.15 µM | GI50 (SK-OV-3 ovarian): 23.1 µM | TGI (SK-OV-3 ovarian): 72.6 µM | GI50 (SNB-19 CNS): 10.6 µM | TGI (SNB-19 CNS): 23.8 µM | GI50 (M14 melanoma): 1.84 µM | TGI (M14 melanoma): 4.67 µM | GI50 (MCF7 breast): 1.54 µM | TGI (MCF7 breast): 7.38 µM | GI50 (OVCAR-8 ovarian): 3.9 µM | TGI (OVCAR-8 ovarian): 13.7 µM | GI50 (NCI-H460 lung): 4.52 µM | TGI (NCI-H460 lung): 18.6 µM | GI50 (SK-MEL-5 melanoma): 2.25 µM | TGI (SK-MEL-5 melanoma): 6.73 µM | GI50 (HOP-92 NSCLC): 1.24 µM | TGI (HOP-92 NSCLC): 3.01 µM | GI50 (A549 NSCLC): 2.79 µM | TGI (A549 NSCLC): 8.35 µM | GI50 (SNB-75 CNS): 1.48 µM | TGI (SNB-75 CNS): 3.66 µM | GI50 (786-0 renal): 1.98 µM | TGI (786-0 renal): 3.81 µM | GI50 (DU-145 prostate): 0.948 µM | TGI (DU-145 prostate): 2.29 µM | GI50 (LOX IMVI melanoma): 0.92 µM | TGI (LOX IMVI melanoma): 2.52 µM | GI50 (OVCAR-4 ovarian): 1.52 µM | TGI (OVCAR-4 ovarian): 3 µM | GI50 (TK-10 renal): 1.29 µM | TGI (TK-10 renal): 2.66 µM | GI50 (SN12C renal): 2.16 µM | TGI (SN12C renal): 6.33 µM | GI50 (IGROV1 ovarian): 1.46 µM | TGI (IGROV1 ovarian): 3.61 µM | GI50 (HL-60(TB) leukemia): 0.235 µM | TGI (HL-60(TB) leukemia): 0.485 µM | GI50 (SK-MEL-28 melanoma): 1.45 µM | TGI (SK-MEL-28 melanoma): 2.85 µM | GI50 (A498 renal): 5.19 µM | TGI (A498 renal): 11.4 µM | GI50 (NCI/ADR-RES ovarian): 4.68 µM | TGI (NCI/ADR-RES ovarian): 21.4 µM | GI50 (SF-539 CNS): 1.9 µM | TGI (SF-539 CNS): 3.91 µM | GI50 (HCC-2998 colon): 2.08 µM | TGI (HCC-2998 colon): 4.26 µM | GI50 (HCT-15 colon): 1.55 µM | TGI (HCT-15 colon): 5.02 µM | GI50 (RPMI-8226 leukemia): 0.522 µM | GI50 (OVCAR-5 ovarian): 3.26 µM | TGI (OVCAR-5 ovarian): 9.57 µM | GI50 (KM12 colon): 2.22 µM | TGI (KM12 colon): 5.49 µM | GI50 (HOP-62 NSCLC): 12.5 µM | TGI (HOP-62 NSCLC): 27.1 µM | GI50 (CAKI-1 renal): 0.186 µM | TGI (CAKI-1 renal): 2.08 µM | GI50 (COLO 205 colon): 1.34 µM | TGI (COLO 205 colon): 2.94 µM | GI50 (SK-MEL-2 melanoma): 2.03 µM | TGI (SK-MEL-2 melanoma): 6.34 µM | GI50 (HT29 colon): 1.83 µM | TGI (HT29 colon): 5.28 µM | GI50 (CCRF-CEM leukemia): 0.467 µM | TGI (CCRF-CEM leukemia): 2.67 µM | GI50 (MOLT-4 leukemia): > 100 µM | TGI (MOLT-4 leukemia): > 100 µM | GI50 (MDA-MB-231 breast): 2.3 µM | TGI (MDA-MB-231 breast): 5.48 µM | GI50 (NCI-H522 lung): 0.492 µM | TGI (NCI-H522 lung): 1.89 µM | GI50 (NCI-H23 lung): 2.64 µM | TGI (NCI-H23 lung): 8.38 µM | GI50 (MDA-MB-435): 2.17 µM | TGI (MDA-MB-435): 6.87 µM | GI50 (SW-620 colon): 1.2 µM | TGI (SW-620 colon): 2.65 µM | GI50 (U251 CNS): 1.65 µM | TGI (U251 CNS): 4.57 µM | GI50 (NCI-H226 lung): 3.39 µM | TGI (NCI-H226 lung): 8.99 µM | GI50 (UO-31 renal): 0.455 µM | TGI (UO-31 renal): 1.08 µM | GI50 (SF-295 CNS): 12.2 µM | TGI (SF-295 CNS): 28 µM | GI50 (EKVX NSCLC): 3.21 µM | TGI (EKVX NSCLC): 13.5 µM | GI50 (HS 578T breast): 2.63 µM | TGI (HS 578T breast): 12.9 µM | GI50 (ACHN renal): 1.64 µM | TGI (ACHN renal): 3.69 µM | GI50 (UACC-257 melanoma): 2.21 µM | TGI (UACC-257 melanoma): 6.46 µM | GI50 (UACC-62 melanoma): 1.79 µM | TGI (UACC-62 melanoma): 4.24 µM | GI50 (RXF 393 renal): 0.883 µM | TGI (RXF 393 renal): 2.19 µM | GI50 (MALME-3M melanoma): 1.28 µM | TGI (MALME-3M melanoma): 3.08 µM | GI50 (BT-549 breast): 1.26 µM | TGI (BT-549 breast): 3.2 µM
